# According to patent US11465978B2, “Anthranilic amides and the use thereof” (THE ADMINISTRATORS OF THE TULANE EDUCATIONAL FUND, priority 2013, dated 2022):
# How the values were obtained:
# MDA-MB-231 xenograft = test: Animal xenograft study, tumor volume; format: in vivo, SCID/beige female mice; settings: SCID female mice, 1×10^6 MDA-MB231 cells bilaterally, 25 mg/kg on day 0, 30 days
# Experimental: End point tumor volume for SCID female mice injected bilaterally with 1×10^6 MDA-MB231 cells, n=10. Animals were treated on day 0 (cell injection day) with either DMSO or SC-1-151 (25 mg/kg). Tumor size was measured biweekly for 30 days using a digital caliper. Bars represent final average tumor volume±SEM.
# Immune-compromised SCID/beige female mice (29-32 days old) were obtained from Charles River Laboratories (Wilmington, Mass.). The animals were allowed a period of adaptation in a sterile and pathogen-free environment with food and water ad libitum. Breast cancer cells MDA-MB-231 were grown in 5% FBS charcoal-stripped DMEM for five days then harvested. Viable cells were mixed with PBS and Matrigel Reduced Factors (BD Biosciences, San Jose, Calif.). Injections (1×10^6 cells/injection) were made bilaterally into the mammary fat pad on day 0 (May 7, 2013). All the procedures in animals were carried out under anesthesia using a mix of isoflurane and oxygen delivered by mask. Animals were treated on day 0 with either DMSO or SC-1-151 (25 mg/kg). Tumor size was measured biweekly for 30 days using a digital caliper. Tumor volume was calculated using the following formula: 4/3πLM^2, where L is the larger radius and M is the smaller radius. On day 31, tumors were excised and blocked in OCT compound. Mice were monitored daily to insure survival after the surgery. […]
# Mia-PaCa2 cells = test: Crystal violet morphology of pancreatic cancer cells; format: cell-based; settings: Mia-PaCa2, 3 days
# Experimental: (A) Mia-PaCa2 cells were seeded in a 96-well plate at a density of 1,000 cells per well and treated with vehicle (DMSO) and SC-1-151. After 3 days, cells were fixed with glutaraldehyde and stained with crystal violet. (B) qPCR for EMT-regulating genes following SC-1-151 treatment. Pancreatic cancer cells were grown in 5% CS phenol free DMEM for 48 hours before treatment with vehicle (DMSO) or SC-1-151 (1 μM) for 24 hours. Cycle number was normalized to R-actin and vehicle-treated cells scaled to 1, n=3.
# pERK5 = test: Western blot, inhibition of EGF-mediated formation of pERK5 in MDA-MB-231 cells; format: cell-based
# Experimental: FIG. 9 is a set of bar graphs showing a Western blot analysis of potential MEK5 inhibitors. The MDA-MB-231 triple negative breast cancer cell line was pretreated with compounds (10 μM) for 30 minutes followed by stimulation with epidermal growth factor (EGF, 50 ng/mL) for 15 minutes. Vehicle-treated cells were pretreated with DMSO for 30 minutes prior to EGF stimulation for 15 minutes. Protein visualization and quantification analysis were performed using LI-COR Odyssey Imager. * P<0.05 vs. Vehicle, one-way ANOVA followed by Tukey-Kramer test (n=3).
# A number of compounds were tested for their potential as MEK5 inhibitors. The MDA-MB-231 triple negative breast cancer cell line was pretreated with 10 μM of compounds 24, 9b, 9a, 9c, 9e, 9f, 9d, 9h, 23, 7, and 15 for 30 minutes followed by stimulation with epidermal growth factor (EGF, 50 ng/mL) for 15 minutes. Vehicle-treated cells and known MEK1/2 inhibitor cells were pretreated with DMSO and U0126 respectively for 30 minutes prior to EGF stimulation for 15 minutes. Protein visualization and quantification analysis was performed using LI-COR Odyssey Imager. The results of the Western blot analysis are shown in FIG. 9. * P<0.05 vs. Vehicle, one-way ANOVA followed by Tukey-Kramer test (n=3).
# MDA-MB-231 cells were grown on 10 cm cell culture plates [Sarstedt] in Dulbecco's Modified Eagle's Medium (DMEM; Gibco) with Ham's F12 Nutrient Mixture (1:1) (Invitrogen), 10% heat-inactivated FBS [Atlanta Biological and 0.5% penicillin/streptomycin [Gibco]. Cells were maintained at 37° C. with 5% CO2. Plating of the cells was done 36 hours before treatment in 35 mm culture plates [Sarstedt] and allowed to reach confluence. To test MEK-5 inhibitors, the cells were treated with epidermal growth factor (EGF; Sigma-Aldrich) 30 min after treatment with the compounds. 15 min after the addition of EGF, the cells were washed with 1×PBS [Sigma-Aldrich] and then lysed in 1% Triton X-100 buffer containing 20 mM Tris (pH 6.8), 137 mM NaCl, 25 mM beta glycerophosphate, 2 mM NaPPi, 2 mM EDTA, 1 mM Na3VO4, 10% glycerol, 5 μg/mL leupeptin, 5 μg/mL aprotinin, 2 mM benzamidine, 0.5 mM DTT, and 1 mM PMSF. The lysates were then centrifuged at 10,000 rpm for 10 min at 4° C.
# Total protein content was assessed by Bradford Bio-Rad protein assay (Cat. No. 500-0006, Bio-Rad, Hercules, Calif.) and 30 μg of protein was loaded on a 8% SDS-PAGE gel for phosphorylated and total ERK1/2 and ERK5 proteins. After running the samples, gels were transferred to a nitrocellulose membrane (Cat. No. 926-31092, Licor Biosciences, Lincoln, Nebr.). After transfer, membranes were washed for 5 min with 1×PBS and blocked for 1 h in a Casein Blocking Buffer (Cat. No. 927-40200, Licor Biosciences) at room temperature. Membranes were then incubated overnight at 4° C. in primary antibody in CBB with 0.2% Tween-20. Antibodies included rabbit anti-phospho-ERK1/2 (Dilution—1:1000, Cat. No. 9101, Cell Signaling, Beverly, Mass.), mouse anti-total ERK1/2 (Dilution—1:1000, Cat. No. 9107, Cell Signaling), and rabbit anti-total ERK5 (Dilution—1:1,000, Cat. No. 3372, Cell Signaling). Mouse anti-α-Tubulin (Dilution—1:10,000, Cat. No. T5168, Sigma-Aldrich) was used as a loading control. After incubation with primary antibody, blots were washed in 1×PBS solution with 0.2% Tween-20 (1×PBS-T) and incubated with goat anti-rabbit (Dilution—1:10,000, Cat. No. 926-68021, LICOR Biosciences) and goat anti-mouse (Dilution—1:10,000, Cat. No. 926-32210, LICOR Biosciences) secondary antibodies for 1 h at room temperature. After washing the membranes with 1×PBS-T, the protein bands were visualized on an Odyssey Infrared Imager and quantified with Odyssey software (LICOR Biosciences).
structure (smiles),measurement,setting,value
"NC(=O)c1ccc(F)c(F)c1Nc1ccc(I)cc1F [Compound 3, 3,4-difluoro-2-((2-fluoro-4-iodophenyl)amino)benzamide]",tumorigenesis in vivo (end point tumor volume),MDA-MB-231 xenograft,decreases tumorigenesis
same,phenotype of pancreatic cancer cells,Mia-PaCa2 cells,induces an epithelial phenotype
same,pERK-5 decrease (%),"pERK5; Example 3 table, DMSO = 0, MDA-MB-231, EGF stimulation",59%
same,inhibition at 10 µM,"pERK5; Homo sapiens, MDA-MB-231, Table 1, MDA-MB-231, compounds 10 μM 30 min, then EGF 50 ng/mL 15 min, read-out: cellular pERK5 decrease (%)",56.5%
